Measurements published in US20250171459A1, “2-METHYL-4',5'-DIHYDROSPIRO[PIPERIDINE-4,7'-THIENO[2,3-C]PYRAN] DERIVATIVES AS INHIBITORS OF APOL1 AND METHODS OF USING SAME” (Vertex Pharmaceuticals Incorporated, priority 2022, published 2025).

Molecular target: T1, APOL1 (Homo sapiens, UniProt O14791)
T1 sequence (O14791 1-398 S342G/I384M): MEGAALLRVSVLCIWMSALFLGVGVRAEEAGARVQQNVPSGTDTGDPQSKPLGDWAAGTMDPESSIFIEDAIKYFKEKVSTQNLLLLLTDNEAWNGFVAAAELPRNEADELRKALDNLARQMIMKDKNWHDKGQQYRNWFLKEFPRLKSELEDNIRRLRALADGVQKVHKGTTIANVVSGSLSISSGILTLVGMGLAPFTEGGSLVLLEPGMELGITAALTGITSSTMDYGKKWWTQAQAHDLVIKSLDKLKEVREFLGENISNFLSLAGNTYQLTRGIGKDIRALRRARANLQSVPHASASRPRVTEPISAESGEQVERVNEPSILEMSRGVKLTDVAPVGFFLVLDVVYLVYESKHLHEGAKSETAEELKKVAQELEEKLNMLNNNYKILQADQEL
Experiment: MultiTox-Fluor Multiplex Cytotoxicity Assay in tet-inducible APOL1 T-REx-HEK293 cells (cell rescue, ratio of dead to live cells)
Assay type: cell-based
Conditions: tet-inducible transgenic APOL1 T-REx-HEK293 cell lines, 50 ng/mL tet, 24 hours; read-out: IP50 (i.e., IC50 for cell proliferation)
Outline: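 T-REx-HEK293 cells with tet-inducible APOL1 were treated with compound (10 μM top, 10-point 3-fold dilution, duplicate) plus 50 ng/mL tetracycline for 24 h at 37° C, in DMEM with 2% tet-free FBS. MultiTox-Fluor protease signals gave a dead/live ratio, normalized to no tet (100% viability) and tet alone (0%).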

SMILES: CCc1cc2c(s1)CCO[C@@]21CCN(C[C@H]2C[C@@H](NC(=O)C(F)(F)F)C2)[C@@H](C)C1 [Compound 387, N-[3-[[(2′S,4R)-2-ethyl-2′-methyl-spiro[6,7-dihydrothieno[3,2-c]pyran-4,4′-piperidine]-1′-yl]methyl]cyclobutyl]-2,2,2-trifluoro-acetamide]
- IC50: 100 to 500 nM

SMILES: CCc1cc2c(s1)CCO[C@@]21CCN(C[C@H]2C[C@@H](NS(=O)(=O)CCO)C2)[C@@H](C)C1 [Compound 388, N-[3-[[(2′S,4R)-2-ethyl-2′-methyl-spiro[6,7-dihydrothieno[3,2-c]pyran-4,4′-piperidine]-1′-yl]methyl]cyclobutyl]-2-hydroxy-ethanesulfonamide]
- IC50: < 100 nM

SMILES: CCc1cc2c(s1)CCO[C@@]21CCN(C[C@H]2C[C@@H](NS(=O)(=O)CC#N)C2)[C@@H](C)C1 [Compound 389]
- IC50: < 100 nM

SMILES: CCc1cc2c(s1)CCO[C@@]21CCN(C[C@H]2C[C@@H](NS(=O)(=O)C3CC3)C2)[C@@H](C)C1 [Compound 390]
- IC50: < 100 nM

SMILES: CCc1cc2c(s1)CCO[C@@]21CCN(C[C@H]2C[C@@H](NS(=O)(=O)c3ccc(C#N)cc3)C2)[C@@H](C)C1 [Compound 391]
- IC50: < 100 nM

SMILES: CCc1cc2c(s1)CCO[C@@]21CCN(C[C@H]2C[C@@H](NS(=O)(=O)CC(=O)OC)C2)[C@@H](C)C1 [Compound 392]
- IC50: 500 to 1000 nM

SMILES: CCc1cc2c(s1)CCO[C@@]21CCN(C[C@H]2C[C@@H](NS(=O)(=O)Cc3cccc(C)c3)C2)[C@@H](C)C1 [Compound 393]
- IC50: < 100 nM

SMILES: CCc1cc2c(s1)CCO[C@@]21CCN(C[C@H]2C[C@@H](NS(=O)(=O)CC)C2)[C@@H](C)C1 [Compound 394]
- IC50: < 100 nM

SMILES: CCc1cc2c(s1)CCO[C@@]21CCN(C[C@H]2C[C@@H](NS(=O)(=O)C(C)C)C2)[C@@H](C)C1 [Compound 395]
- IC50: < 100 nM

SMILES: CCc1cc2c(s1)CCO[C@@]21CCN(C[C@H]2C[C@@H](NS(=O)(=O)c3cccc(OC)c3)C2)[C@@H](C)C1 [Compound 396]
- IC50: < 100 nM

SMILES: CCc1cc2c(s1)CCO[C@@]21CCN(C[C@H]2C[C@@H](NS(=O)(=O)c3ccccc3)C2)[C@@H](C)C1 [Compound 397]
- IC50: < 100 nM

SMILES: CCc1cc2c(s1)CCO[C@@]21CCN(C[C@H]2C[C@@H](NS(=O)(=O)Cc3ccccc3)C2)[C@@H](C)C1 [Compound 398]
- IC50: < 100 nM

SMILES: CCc1cc2c(s1)CCO[C@@]21CCN(C[C@H]2C[C@@H](NS(=O)(=O)c3ccc(F)cc3)C2)[C@@H](C)C1 [Compound 399]
- IC50: < 100 nM

SMILES: CCc1cc2c(s1)CCO[C@@]21CCN(C[C@H]2C[C@@H](NS(=O)(=O)c3cccc(C#N)c3)C2)[C@@H](C)C1 [Compound 400]
- IC50: < 100 nM

SMILES: CCc1cc2c(s1)CCO[C@@]21CCN(C[C@H]2C[C@@H](NS(=O)(=O)C3COC3)C2)[C@@H](C)C1 [Compound 401]
- IC50: < 100 nM

SMILES: CCc1cc2c(s1)CCO[C@@]21CCN(C[C@H]2C[C@@H](NS(=O)(=O)c3ccc(OC)cc3)C2)[C@@H](C)C1 [Compound 402]
- IC50: < 100 nM

SMILES: CCc1ccc(S(=O)(=O)N[C@H]2C[C@@H](CN3CC[C@]4(C[C@@H]3C)OCCc3sc(CC)cc34)C2)s1 [Compound 403]
- IC50: < 100 nM

SMILES: CCc1cc2c(s1)CCO[C@@]21CCN(C[C@H]2C[C@@H](NS(=O)(=O)c3ccccc3OC)C2)[C@@H](C)C1 [Compound 404]
- IC50: < 100 nM

SMILES: CCc1cc2c(s1)CCO[C@@]21CCN(C[C@H]2C[C@@H](NS(=O)(=O)c3cccs3)C2)[C@@H](C)C1 [Compound 405]
- IC50: < 100 nM

SMILES: CCc1cc2c(s1)CCO[C@@]21CCN(C[C@H]2C[C@@H](NS(=O)(=O)c3cccc(C)c3)C2)[C@@H](C)C1 [Compound 406]
- IC50: < 100 nM

SMILES: CCc1cc2c(s1)CCO[C@@]21CCN(C[C@H]2C[C@@H](NS(=O)(=O)c3cncc(Cl)c3)C2)[C@@H](C)C1 [Compound 407]
- IC50: < 100 nM

SMILES: CCc1cc2c(s1)CCO[C@@]21CCN(C[C@H]2C[C@@H](NS(=O)(=O)c3ccccc3F)C2)[C@@H](C)C1 [Compound 408]
- IC50: < 100 nM

SMILES: CCc1cc2c(s1)CCO[C@@]21CCN(C[C@H]2C[C@@H](NS(=O)(=O)c3ccccc3Cl)C2)[C@@H](C)C1 [Compound 409]
- IC50: < 100 nM

SMILES: CCc1cc2c(s1)CCO[C@@]21CCN(C[C@H]2C[C@@H](NS(C)(=O)=O)C2)[C@@H](C)C1 [Compound 410]
- IC50: < 100 nM

SMILES: CCc1cc2c(s1)CCO[C@@]21CCN(C[C@H]2C[C@@H](NS(=O)(=O)C(F)(F)F)C2)[C@@H](C)C1 [Compound 411]
- IC50: 100 to 500 nM

SMILES: CCc1cc2c(s1)CCO[C@@]21CCN(C[C@H]2C[C@@H](NS(=O)(=O)c3cnccc3Cl)C2)[C@@H](C)C1 [Compound 412]
- IC50: < 100 nM

SMILES: CCc1cc2c(s1)CCO[C@@]21CCN(C[C@H]2C[C@@H](NS(=O)(=O)c3ccc(C(N)=O)cc3)C2)[C@@H](C)C1 [Compound 413]
- IC50: < 100 nM

SMILES: CCc1cc2c(s1)CCO[C@@]21CCN(C[C@H]2C[C@@H](NS(=O)(=O)CCC3NC(=O)NC3=O)C2)[C@@H](C)C1 (stereo partly drawn) [Compound 415]
- IC50: 100 to 500 nM

SMILES: CCc1cc2c(s1)CCO[C@@]21CCN(C[C@H]2C[C@@H](NS(=O)(=O)c3ccc4[nH]c(=O)[nH]c4c3)C2)[C@@H](C)C1 [Compound 416]
- IC50: 100 to 500 nM

SMILES: CCc1cc2c(s1)CCO[C@@]21CCN(C[C@H]2C[C@@H](NS(=O)(=O)CCCO)C2)[C@@H](C)C1 [Compound 417]
- IC50: 500 to 1000 nM

SMILES: CCc1cc2c(s1)CCO[C@@]21CCN(C[C@H]2C[C@H](NC(=O)OC(C)(C)C)C2)[C@@H](C)C1 [Compound 418, tert-butyl N-[3-[[(2′S,4R)-2-ethyl-2′-methyl-spiro[6,7-dihydrothieno[3,2-c]pyran-4,4′-piperidine]-1′-yl]methyl]cyclobutyl]carbamate]
- IC50: 100 to 500 nM

SMILES: CCc1cc2c(s1)CCO[C@@]21CCN(C[C@H]2C[C@H](N)C2)[C@@H](C)C1 [Compound 419, 3-[[(2′S,4R)-2-ethyl-2′-methyl-spiro[6,7-dihydrothieno[3,2-c]pyran-4,4′-piperidine]-1′-yl]methyl]cyclobutanamine]
- IC50: 500 to 1000 nM

SMILES: CCc1cc2c(s1)CCO[C@@]21CCN(CC2CN(C(=O)OC(C)(C)C)C2)[C@@H](C)C1 [Compound 420, tert-butyl 3-[[(2′S,4R)-2-ethyl-2′-methyl-spiro[6,7-dihydrothieno[3,2-c]pyran-4,4′-piperidine]-1′-yl]methyl]azetidine-1-carboxylate]
- IC50: < 100 nM

SMILES: CCc1cc2c(s1)CCO[C@@]21CCN(CC2CNC2)[C@@H](C)C1 [Compound 421, (2′S,4R)-1′-(azetidin-3-ylmethyl)-2-ethyl-2′-methyl-spiro[6,7-dihydrothieno[3,2-c]pyran-4,4′-piperidine]]
- IC50: 500 to 1000 nM

SMILES: CCc1cc2c(s1)CCO[C@@]21CCN(CC2CN(C(=O)c3nonc3N)C2)[C@@H](C)C1 [Compound 422, (4-amino-1,2,5-oxadiazol-3-yl)-[3-[[(2′S,4R)-2-ethyl-2′-methyl-spiro[6,7-dihydrothieno[3,2-c]pyran-4,4′-piperidine]-1′-yl]methyl]azetidin-1-yl]methanone]
- IC50: < 100 nM

SMILES: CCc1cc2c(s1)CCO[C@@]21CCN(CC2CN(C(=O)c3ncccc3O)C2)[C@@H](C)C1 [Compound 423, [3-[[(2′S,4R)-2-ethyl-2′-methyl-spiro[6,7-dihydrothieno[3,2-c]pyran-4,4′-piperidine]-1′-yl]methyl]azetidin-1-yl]-(3-hydroxy-2-pyridyl)methanone]
- IC50: < 100 nM
